Source: paper PMC6199744, “Development of Chemical Proteomics for the Folateome and Analysis of the Kinetoplastid Folateome” (ACS Infectious Diseases, 2018)
Several values for one entry are separate records, joined by “and”; a condition that tells them apart may be missing. Identical values can stand only once. Like-named read-outs stand apart in the source and are kept apart here.

Tested on: T. brucei lysate proteins
Type: binding, Trypanosoma brucei

NCCCNc1ccc(C(=O)NC(CCC(=O)O)C(=O)O)cc1 (stereo not shown) [compound 7]
fold change vs vehicle control: 0.96 and 1.1 and 0.99
fold change (protein CZB00000046.1 HA-UBIQUITIN, vehicle control = 1): 0.74
fold change (protein RHS6A, vehicle control = 1): 0.95
fold change vs vehicle control (protein TB09.160.3270 ATP-DEPENDENT DEAD BOX HELICASE, PUTATIVE, vehicle control = 1): 0.89
fold change (protein TB09.160.3710 PRO[…] NUCLEAR ANTIGEN (PCNA), PUTATIVE, vehicle control = 1): 0.81
fold change vs vehicle control (protein TB09.160.4200 60S ACIDIC RIBOSOMAL PROTEIN, PUTATIVE, vehicle control = 1): 0.64
fold change vs vehicle control (protein TB09.160.4250 TR[…], vehicle control = 1): 0.94
fold change vs vehicle control (protein TB09.211.2630 60S RIBOSOMAL PROTEIN L23, PUTATIVE, vehicle control = 1): 0.98
fold change (protein TB09.211.4460 ADP-RI[…], PUTATIVE, vehicle control = 1): 0.93
fold change (protein TB09.211.4513 KIN[…] PROTEIN KMP-11, vehicle control = 1): 0.88
fold change (protein TB09.211.4760 METACASPASE 5, PUTATIVE, vehicle control = 1): 1.1
fold change vs vehicle control (protein TB09.244.2780 HY[…], CONSERVED, vehicle control = 1): 1.54
fold change (protein TB11.01.0450 PROTEIN PHOSPHATASE 1, PUTATIVE, vehicle control = 1): 1
fold change vs vehicle control (protein TB11.01.2560 40S RIBOSOMAL PROTEIN SA, PUTATIVE, vehicle control = 1): 0.82
fold change vs vehicle control (protein TB11.01.3180 GUANINE NUCLEOTIDE-BINDING PROTEIN BETA SUBUNIT-LIKE PROTEIN, vehicle control = 1): 0.93
fold change vs vehicle control (protein TB11.01.4370 HY[…], CONSERVED, vehicle control = 1): 0.8
fold change (protein TB11.01.5350 PROFILIN, vehicle control = 1): 0.98
fold change (protein TB11.01.5860 T-COMPLEX PROTEIN 1, EPSILON SUBUNIT, PUTATIVE, vehicle control = 1): 0.91
fold change (protein TB11.01.8590 RAB-LIKE 5, SMALL G PROTEIN, vehicle control = 1): 0.85
fold change (protein TB11.01.8740 PROTEIN PHOSPHATASE 4, PUTATIVE, vehicle control = 1): 0.77
fold change vs vehicle control (protein TB11.02.2040 HY[…], CONSERVED (ALBA-Domain Protein), vehicle control = 1): 0.84
fold change vs vehicle control (protein TB11.02.2420 HY[…], CONSERVED, vehicle control = 1): 0.99
fold change vs vehicle control (protein TB11.02.2640 DYNEIN IN[…] IC78, PUTATIVE, vehicle control = 1): 1.17
fold change (protein TB11.02.2960 MIT[…] PROTEIN, PUTATIVE, vehicle control = 1): 0.88
fold change vs vehicle control (protein TB11.02.4170 40S RIBOSOMAL PROTEIN S5, PUTATIVE, vehicle control = 1): 1.18
fold change (protein TB11.02.4700 14-3-3 PROTEIN, vehicle control = 1): 1
fold change vs vehicle control (protein TB11.03.0250 C[…], vehicle control = 1): 0.88
fold change vs vehicle control (protein TB11.03.0530 HY[…], CONSERVED (hy[…] SCD6.10), vehicle control = 1): 1.76
fold change vs vehicle control (protein TB427TMP.01.0480 HY[…], CONSERVED, vehicle control = 1): 1
fold change (protein TB427TMP.01.1470 60S RIBOSOMAL PROTEIN L10A, PUTATIVE, vehicle control = 1): 0.84
fold change vs vehicle control (protein TB427TMP.01.4280 HY[…], CONSERVED, vehicle control = 1): 1.2
fold change vs vehicle control (protein TB427TMP.01.5680 HY[…], CONSERVED, vehicle control = 1): 0.98
fold change vs vehicle control (protein TB427TMP.01.5690 DRBD4, vehicle control = 1): 0.89
fold change (protein TB427TMP.01.5960 MIT[…] PROTEIN, PUTATIVE, vehicle control = 1): 0.93
fold change vs vehicle control (protein TB427TMP.01.6890 SMALL GTPASE, PUTATIVE, vehicle control = 1): 1.8
fold change (protein TB427TMP.01.7490 HY[…], CONSERVED, vehicle control = 1): 0.96
fold change vs vehicle control (protein TB427TMP.01.7530 HY[…], CONSERVED, vehicle control = 1): 1
fold change (protein TB427TMP.01.8390 HY[…], CONSERVED, vehicle control = 1): 0.96
fold change (protein TB427TMP.01.8570 DYNEIN LIGHT IN[…] D1BLIC, PUTATIVE, vehicle control = 1): 0.95
fold change (protein TB427TMP.02.0030 DYNEIN HEAVY CHAIN, PUTATIVE, vehicle control = 1): 0.88
fold change (protein TB427TMP.02.0460 NUCLEOPORIN, vehicle control = 1): 0.98
fold change (protein TB427TMP.02.0750 T-COMPLEX PROTEIN 1, ZETA SUBUNIT, PUTATIVE, vehicle control = 1): 1
fold change (protein TB427TMP.02.0760 DYNEIN HEAVY CHAIN, PUTATIVE, vehicle control = 1): 0.91
fold change (protein TB427TMP.02.1070 AMINOPEPTIDASE, PUTATIVE, vehicle control = 1): 0.72
fold change vs vehicle control (protein TB427TMP.02.1085 40S RIBOSOMAL PROTEIN S4, PUTATIVE, vehicle control = 1): 0.78
fold change (protein TB427TMP.02.1106 NUCLEOBASE/NUCLEOSIDE TRANSPORTER 8 1, vehicle control = 1): 0.95
fold change vs vehicle control (protein TB427TMP.02.2070 LONG-CHAIN-FATTY-ACID-COA LIGASE, PUTATIVE, vehicle control = 1): 0.95
fold change vs vehicle control (protein TB427TMP.02.2890 HY[…], CONSERVED, vehicle control = 1): 1.22
fold change vs vehicle control (protein TB427TMP.02.4300 HY[…], CONSERVED, vehicle control = 1): 1.4
fold change (protein TB427TMP.02.4550 HY[…], CONSERVED, vehicle control = 1): 0.93
fold change vs vehicle control (protein TB427TMP.02.5450 GLUCOSE-REGULATED PROTEIN 78, PUTATIVE, vehicle control = 1): 0.97
fold change (protein TB427TMP.02.5660 HY[…], CONSERVED, vehicle control = 1): 0.82
fold change (protein TB427TMP.03.0150 HY[…], CONSERVED, vehicle control = 1): 0.91
fold change (protein TB427TMP.160.2370 HY[…], CONSERVED, vehicle control = 1): 0.91
fold change vs vehicle control (protein TB427TMP.160.4620 INOSITOL-1(OR 4)-MONOPHOSPHATASE, PUTATIVE, vehicle control = 1): 0.99
fold change vs vehicle control (protein TB427TMP.160.4630 HY[…], CONSERVED, vehicle control = 1): 0.83
fold change (protein TB427TMP.160.4770 PROTEIN KINASE, PUTATIVE, vehicle control = 1): 0.89
fold change (protein TB427TMP.160.5670 HY[…], CONSERVED, vehicle control = 1): 1.47
fold change (protein TB427TMP.211.0740 P21 ANTIGEN PROTEIN, PUTATIVE, vehicle control = 1): 0.79
fold change (protein TB427TMP.211.0930 POLYADENYLATE-BINDING PROTEIN 1 (POLY(A)-BINDING PROTEIN 1) (PABP 1), vehicle control = 1): 0.89
fold change (protein TB427TMP.211.2460 HY[…], CONSERVED, vehicle control = 1): 0.96
fold change vs vehicle control (protein TB427TMP.211.2570 T-COMPLEX PROTEIN 1, ETA SUBUNIT, PUTATIVE, vehicle control = 1): 0.8
fold change vs vehicle control (protein TB427TMP.211.3140 HY[…], CONSERVED, vehicle control = 1): 2.05
fold change vs vehicle control (protein TB427TMP.211.3510 ATP-DEPENDENT DEAD/H RNA HELICASE, PUTATIVE, vehicle control = 1): 0.97
fold change vs vehicle control (protein TB427TMP.211.4170 HY[…], CONSERVED, vehicle control = 1): 1.18
fold change vs vehicle control (protein TB427TMP.22.0003 PHOSPH[…], PUTATIVE, vehicle control = 1): 1.32
fold change (protein TB427TMP.244.2840 HY[…], CONSERVED, vehicle control = 1): 0.93
fold change (protein TB427TMP.47.0011 HY[…], CONSERVED, vehicle control = 1): 0.87
fold change vs vehicle control (protein TB427TMP.55.0006 INTR[…] PROTEIN IFT88, vehicle control = 1): 0.91
fold change vs vehicle control (protein TB427.01.120 RETRO[…] SPOT (RHS) PROTEIN, PUTATIVE, vehicle control = 1): 0.9
fold change (protein TB427.01.2570 COATOMER BETA SUBUNIT, vehicle control = 1): 0.94
fold change (protein TB427.01.5030 LEUCINE-RICH REPEAT PROTEIN (LRRP), PUTATIVE, vehicle control = 1): 0.98
fold change vs vehicle control (protein TB427.02.2970 MIT[…] PROTEIN, PUTATIVE, vehicle control = 1): 1.23
fold change vs vehicle control (protein TB427.02.3880 HET[…] RIBONUC[…]/F, PUTATIVE, vehicle control = 1): 1.22
fold change vs vehicle control (protein TB427.03.1210 PROTEIN TRANSPORT PROTEIN SEC24, vehicle control = 1): 1.18
fold change vs vehicle control (protein TB427.03.3160 POLY(A) POLYMERASE, vehicle control = 1): 1.17
fold change vs vehicle control (protein TB427.03.3950 HY[…], CONSERVED, vehicle control = 1): 0.95
fold change vs vehicle control (protein TB427.03.4040 HY[…], CONSERVED (Ankyrinrepeat), vehicle control = 1): 1.73
fold change vs vehicle control (protein TB427.04.1080 V-TYPE ATPASE, A SUBUNIT, PUTATIVE, vehicle control = 1): 1.34
fold change (protein TB427.04.1090 ENDOSOMAL INTEGRAL MEMBRANE PROTEIN, PUTATIVE, vehicle control = 1): 1.3
fold change (protein TB427.04.1300 HY[…], CONSERVED, vehicle control = 1): 0.92
fold change vs vehicle control (protein TB427.04.1660 MIT[…] PROTEIN, PUTATIVE, vehicle control = 1): 0.89
fold change (protein TB427.04.310 HY[…], CONSERVED, vehicle control = 1): 0.56
fold change (protein TB427.04.3890 ATP-DEPENDENT RNA HELICASE, PUTATIVE, vehicle control = 1): 0.88
fold change (protein TB427.04.420 PHOSPHATIDYLINOSITOL 3-KINASE (TOR2), vehicle control = 1): 0.71
fold change (protein TB427.04.450 COATOMER ALPHA SUBUNIT, PUTATIVE, vehicle control = 1): 0.89
fold change (protein TB427.04.5010 CALRETICULIN, PUTATIVE, vehicle control = 1): 0.83
fold change (protein TB427.04.5200 NUCLEOPORIN (NUP54/57), PUTATIVE, vehicle control = 1): 0.99
